Where “and” joins values, the source holds several entries; their conditions need not be identical. Equal entries are not always repeated.
Columns and labels:
[1] = system: A431; test: Cellular proliferation assay (Alamar blue), A431; format: cell-based; settings: Homo sapiens, A-431, A431 cells, 72 hours with compound, 10% FCS, read-out: pIC50 A431 (converted)
Method: (§1) […] functional properties of these compounds was tested in cellular proliferation assays on a panel of different cell lines in the presence of 10% FCS serum (37° C. and 5% (v/v) CO2). In a first step these cells were seeded and incubated for 24 hours in the absence of compound. In the second step the cells were incubated for 72 hours with the compounds to be tested for 72 hours. The viable cell number was finally assessed in a standard Alamar blue cell viability assay.
(§2) The viable cell number was assessed by incubation for either 4 h (HCT-116, H1299, H460) 6 h (SKOV3, HT29, U87-MG, Colo205) or 24 h (A2780, PC3, MDA-MB-231, A549, MCF-7) with Alamar blue (Resazurin 9 μg/ml, K-Ferrocyanide 90 μM K-Ferricyanide 90 μM) and the converted fluorescent product was quantified on a fluorescent plate readed (544 nm/590 nm). Effect of the compounds is calculated as of on control cells.

[2] = system: A549; test: Cellular proliferation assay (Alamar blue), A549; format: cell-based; settings: Homo sapiens, A549 cells, 72 hours with compound, 10% FCS, read-out: pIC50 A549 (converted)
Method: as §1, §2

[3] = system: HT-29; test: Cellular proliferation assay (Alamar blue), HT-29; format: cell-based; settings: Homo sapiens, HT-29 cells, 72 hours with compound, 10% FCS, read-out: pIC50 HT-29 (converted)
Method: as §1, §2

[4] = system: DU-145; test: Cellular proliferation assay (Alamar blue), DU-145; format: cell-based; settings: Homo sapiens, DU-145 cells, 72 hours with compound, 10% FCS, read-out: pIC50 DU-145 (converted)
Method: as §1, §2

[5] = molecular target: PLK4 (h) (Homo sapiens, UniProt O00444); test: PLK-4 human kinase assay (SPA); format: biochemical; settings: read-out: PLK4 pIC50 (converted)
PLK4 (h), sequence (O00444 whole entry): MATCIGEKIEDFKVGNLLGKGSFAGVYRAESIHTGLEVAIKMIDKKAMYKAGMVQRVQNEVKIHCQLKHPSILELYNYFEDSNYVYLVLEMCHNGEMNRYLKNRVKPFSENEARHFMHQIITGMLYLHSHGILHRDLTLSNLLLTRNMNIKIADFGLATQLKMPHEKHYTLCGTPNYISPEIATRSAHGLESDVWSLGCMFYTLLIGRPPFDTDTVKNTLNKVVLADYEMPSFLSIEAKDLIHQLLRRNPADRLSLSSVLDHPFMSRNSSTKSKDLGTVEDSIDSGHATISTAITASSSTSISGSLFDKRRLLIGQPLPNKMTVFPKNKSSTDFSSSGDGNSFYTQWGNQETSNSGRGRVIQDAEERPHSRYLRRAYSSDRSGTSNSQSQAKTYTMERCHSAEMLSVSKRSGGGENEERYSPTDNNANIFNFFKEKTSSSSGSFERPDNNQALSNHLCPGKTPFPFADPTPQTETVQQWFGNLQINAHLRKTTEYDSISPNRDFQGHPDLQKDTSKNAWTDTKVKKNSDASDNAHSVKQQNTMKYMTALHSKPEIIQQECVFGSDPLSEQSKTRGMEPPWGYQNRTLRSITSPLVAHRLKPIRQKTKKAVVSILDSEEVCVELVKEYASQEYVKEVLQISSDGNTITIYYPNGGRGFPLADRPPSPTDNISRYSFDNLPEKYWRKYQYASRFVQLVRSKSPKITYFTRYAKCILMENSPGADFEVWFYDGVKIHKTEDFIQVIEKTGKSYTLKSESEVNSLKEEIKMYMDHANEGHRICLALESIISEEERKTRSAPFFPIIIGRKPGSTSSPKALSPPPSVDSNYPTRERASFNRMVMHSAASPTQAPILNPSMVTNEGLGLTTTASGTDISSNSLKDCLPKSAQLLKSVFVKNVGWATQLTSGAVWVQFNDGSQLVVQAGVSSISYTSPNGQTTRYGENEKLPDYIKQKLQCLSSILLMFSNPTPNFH
Procedure, shortened: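 Radiometric readout: 33P-labelled peptide captured on streptavidin SPA beads after EDTA stop, imaged by Leadseeker. Reaction ran 60 min at room temperature in Hepes pH 8.0 buffer. It contained 1 μM ATP with 2 nM [γ-33P]ATP, 10 μM biotinylated peptide and PLK4 (h) at 19 μg/ml.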

[6] = system: SKOV3; test: Cellular proliferation assay (Alamar blue), SKOV3; format: cell-based; settings: Homo sapiens, SK-OV-3, SKOV3 cells, 72 hours with compound, 10% FCS, read-out: pIC50 SKOV3 (converted)
Procedure, shortened: (§3)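 Proliferation was assessed over 72 h of compound treatment, following 24 h of seeding without compound, under 10% FCS, 37° C. and 5% CO2. Fluorescent resazurin product was measured and compared with control cells.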

[7] = system: U87MG; test: Cellular proliferation assay (Alamar blue), U87MG; format: cell-based; settings: Homo sapiens, U-87 MG, 72 h, U87MG cells, 72 hours with compound, 10% FCS, read-out: pIC50 U87MG (converted)
Procedure, shortened: as §3

[8] = system: A2780; test: Cellular proliferation assay (Alamar blue), A2780; format: cell-based; settings: Homo sapiens, A2780, 72 h, A2780 cells, 72 hours with compound, 10% FCS, read-out: pIC50 A2780 (converted)
Procedure, shortened: as §3

SMILES	IC50 [1]	IC50 [2]	IC50 [3]	IC50 [4]	IC50 [5]	IC50 [6]	IC50 [7]	IC50 [8]
COc1ccc2cc1OCCCCCC(=O)N1CCN(CC1)c1ncnc3c1/C(=C/N2)C(=O)N3 [Compound 18]	> 10000 nM	> 10000 nM	> 10000 nM	> 10000 nM	4790 nM	2090 nM		
COc1ccc2cc1OCCCC(=O)N(C)CCCNc1ncnc3c1/C(=C/N2)C(=O)N3 [Compound 9]	1450 nM	< 302 nM	525 nM	< 302 nM	55 nM and 52.5 nM	339 nM	2240 nM	282 nM
COc1ccc2cc1OCCCC(=O)N(C)CCCN(C)c1ncnc3c1/C(=C/N2)C(=O)N3 [Compound 31]	> 10000 nM	537 nM	2820 nM	1230 nM	525 nM	1350 nM	1620 nM	2880 nM
